Results taken from US8722901B2, “Carboxy oxazole or thiazole compounds as DGAT-1 inhibitors useful for the treatment of obesity” (Piramal Enterprises Limited, priority 2009, dated 2014).

These compounds were tested against T1, hDGAT-1 (Homo sapiens, UniProt O75907) (assay: In-vitro DGAT-1 assay (14C oleoyl CoA, microsomes from Sf9 cells)). Settings: 1 μM compound; hDGAT-1 containing microsomes from Sf9 cells.
T1 construct: host or cells: Sf9 insect cells (baculovirus); microsomal fraction
T1 sequence (O75907 1-488): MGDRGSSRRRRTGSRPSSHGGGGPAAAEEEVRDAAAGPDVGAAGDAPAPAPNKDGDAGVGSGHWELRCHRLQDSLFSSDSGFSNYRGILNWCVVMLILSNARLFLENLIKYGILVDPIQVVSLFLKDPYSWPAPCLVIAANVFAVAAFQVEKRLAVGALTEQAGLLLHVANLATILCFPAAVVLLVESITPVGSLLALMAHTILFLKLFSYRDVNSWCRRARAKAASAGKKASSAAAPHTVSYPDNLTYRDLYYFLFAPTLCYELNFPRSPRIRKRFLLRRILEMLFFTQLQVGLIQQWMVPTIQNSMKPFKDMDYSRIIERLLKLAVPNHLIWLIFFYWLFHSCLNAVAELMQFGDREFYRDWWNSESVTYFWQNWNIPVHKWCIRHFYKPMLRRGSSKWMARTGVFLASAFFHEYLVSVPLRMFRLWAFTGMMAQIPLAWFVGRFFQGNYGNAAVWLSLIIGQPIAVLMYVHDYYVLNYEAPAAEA
Type: biochemical
Procedure: In-Vitro Protocol for DGAT-1 Assay
Sf9 Culture and Treatment
Sf9 cells were grown in T25 flasks containing Graces's Insect media (Invitrogen, US) with 10% FBS (Hyclone, US) with antibiotic (100 units/mL penicillin, 100 μg/mL streptomycin sulphate, 0.25 μg/mL amphotericin B as Fungizone) grown in a 27° C. incubator.
hDGAT-10RF expression clone (RZPDo839C09146 in pDEST vector) was obtained from RZPD, Germany. hDGAT-1 bacmid DNA was obtained by transformation of the hDGAT expression clone into DH10Bac E. coli competent cells. Approximately 1 μg of hDGAT-1 bacmid DNA was infected into Sf9 cells with Cellfectin (Invitrogen, US) reagent. Following infection, Sf9 cells were incubated at 27° C. for 30 minutes. Five hours after infection, the media was replaced with growth media containing antibiotic (100 units/mL penicillin, 100 μg/mL streptomycin sulphate, 0.25 μg/mL amphotericin B as Fungizone) and incubated at 27° C. for 72 hours. The supernatant containing the virus was centrifuged at 1500 g for 5 minutes, passed through 0.22 μm filter, and subsequently stored at 4° C. The virus was further amplified three more times by re-infection of Sf9 cells and the viral titer was determined by plaque assay.
Preparation of DGAT-1 Microsomes from Sf9 Cells
Sf9 cells were seeded in spinner flasks on day 0 at a cell density of 1×10^6 and infected on day 1 with hDGAT-1 baculovirus at a multiplicity of infection (MOI) of 5 and a cell density of 2×10^6. On day 3 (or 66-72 hours), cells were harvested and centrifuged at 2500 g for 10 minutes. Pellet was resuspended in lysis buffer (100 mM sucrose, 50 mM KCl, 40 mM KH2PO4, 30 mM EDTA, pH 7.2) and passed through 21-gauge needle approximately 10 times. […] The supernatant was subjected to centrifugation at 35,000 rpm in a Beckman Ti-45 rotor at 4° C. for 1 hour. The resultant pellet containing the microsomes were resuspended overnight in 1 mL of lysis buffer and total protein concentration was estimated using Bradford Reagent (Sigma, US). Microsomes were aliquoted and stored at −80° C.
Measurement of DGAT-1 Activity
Frozen aliquots of hDGAT-1 containing microsomes were thawed (5-10 mg/mL total protein) on ice and diluted to a working stock of 1 mg/mL with DGAT Assay Buffer (DAB).
The assay was performed in duplicates in a reaction volume of 100 μL. […] Procedure:
The reaction was started by the addition of […] of 1 mg/mL of microsomes (iv) to the mixture and incubated at 37° C. for 10 minutes. […] The mixture was vortexed and the triglycerides formed were extracted into the organic heptane phase.

| Compound | inhibition at 1 µM [%] | % inhibition of hDGAT-1 at 1 μM |
| --- | --- | --- |
| CC(C)C(NC(=O)c1ncc(-c2ccc(NC(=O)Nc3cccc(C(F)(F)F)c3)cc2)o1)C(=O)O (centres unmarked) [Example 2, 3-Methyl-2-(5-(4-(3-(3-(trifluoromethyl)phenyl)ureido)phenyl)oxazole-2-carboxamido)butanoic acid] | 50 to 100 | – |
| Cc1ccc(NC(=O)Nc2ccc(-c3cnc(C(=O)NC(C(=O)O)C(C)C)o3)cc2)cc1C (centres unmarked) [Example 6, 2-(5-(4-(3-(3,4-dimethylphenyl)ureido)phenyl)oxazole-2-carboxamido)-3-methylbutanoic acid] | 50 to 100 | – |
| CC(C)C(NC(=O)c1ncc(-c2ccc(NC(=O)Nc3ccc(Cl)cc3Oc3ccccc3)cc2)o1)C(=O)O (centres unmarked) [Example 8, 2-(5-(4-(3-(4-chloro-2-phenoxyphenyl)ureido)phenyl)oxazole-2-carboxamido)-3-methylbutanoic acid] | 50 to 100 | – |
| CC(C)C(NC(=O)c1nc(-c2ccc(NC(=O)Nc3ccccc3Cl)cc2)cs1)C(=O)O (centres unmarked) [Example 24, 2-(4-(4-(3-(2-Chlorophenyl)ureido)phenyl)thiazole-2-carboxamido)-3-methylbutanoic acid] | 0 to 50 | – |
| CC(C)C(NC(=O)c1nc(-c2ccc(NC(=O)c3ccc(C(C)(C)C)cc3)cc2)cs1)C(=O)O (centres unmarked) [Example 28, 2-(4-(4-(4-tert-butylbenzamido)phenyl)thiazole-2-carboxamido)-3-methylbutanoic acid] | 0 to 50 | – |
| CC(C)C(NC(=O)c1nc(-c2ccc(NC(=O)Nc3ccc(C(F)(F)F)cc3)cc2)cs1)C(=O)O (centres unmarked) [Example 30, 3-methyl-2-(4-(4-(3-(4-(trifluoromethyl)phenyl)ureido)phenyl)thiazole-2-carboxamido)butanoic acid] | 0 to 50 | – |
| Cc1ccc(NC(=O)Nc2ccc(-c3csc(C(=O)NC(C(=O)O)C(C)C)n3)cc2)cc1C (centres unmarked) [Example 32, 2-(4-(4-(3-(3,4-Dimethylphenyl)ureido)phenyl)thiazole-2-carboxamido)-3-methylbutanoic acid] | 0 to 50 | – |
| CC(C)C(NC(=O)c1nc(-c2ccc(NC(=O)Nc3ccc(Cl)cc3Oc3ccccc3)cc2)cs1)C(=O)O (centres unmarked) [Example 34, 2-(4-(4-(3-(4-chloro-2-phenoxyphenyl)ureido)phenyl)thiazole-2-carboxamido)-3-methylbutanoic acid] | 0 to 50 | – |
| CC(C)C(NC(=O)c1nc(-c2ccc(NC(=O)c3ccc(-c4ccccc4)cc3)cc2)cs1)C(=O)O (centres unmarked) [Example 36, 2-(4-(4-Biphenyl-4-ylcarboxamidophenyl)thiazole-2-carboxamido)-3-methylbutanoic acid] | – | + (>0% Inhibition ≦50) |
| CCCCCc1ccc(C(=O)Nc2ccc(-c3csc(C(=O)NC(C(=O)O)C(C)C)n3)cc2)cc1 (centres unmarked) [Example 38, 3-Methyl-2-(4-(4-(4-pentylbenzamido)phenyl)thiazole-2-carboxamido) butanoic acid] | 0 to 50 | – |
| CCCCCc1ccc(C(=O)Nc2ccc(-c3cnc(C(=O)N(C)C(C(=O)O)C(C)C)s3)cc2)cc1 (centres unmarked) [Example 40, 3-Methyl-2-(N-methyl-5-(4-(4-pentylbenzamido)phenyl)thiazole-2-carboxamido)butanoic acid] | 50 to 100 | – |
| CC(C)C(C(=O)O)N(C)C(=O)c1ncc(-c2ccc(NC(=O)c3ccc(-c4ccccc4)cc3)cc2)s1 (centres unmarked) [Example 42, 2-(5-(4-Biphenyl-4-ylcarboxamidophenyl)-N-methylthiazole-2-carboxamido)-3-methylbutanoic acid] | – | ++ (>50% Inhibition ≦100) |
| CC(C)C(C(=O)O)N(C)C(=O)c1ncc(-c2ccc(NC(=O)c3ccc(C(C)(C)C)cc3)cc2)s1 (centres unmarked) [Example 44, 2-(5-(4-(4-tert-Butylbenzamido)phenyl)-N-methylthiazole-2-carboxamido)-3-methylbutanoic acid] | 50 to 100 | – |
| CC(C)C(NC(=O)c1nc(-c2ccc(NS(=O)(=O)c3ccc(Cl)cc3Cl)cc2)cs1)C(=O)O (centres unmarked) [Example 46, 2-(4-(4-(2,4-Dichlorophenylsulfonamido)phenyl)thiazole-2-carboxamido)-3-methylbutanoic acid] | 0 to 50 | – |
| CC(C)C(NC(=O)c1ncc(-c2ccc(NC(=O)c3ccc(-c4ccccc4)cc3)cc2)s1)C(=O)O (centres unmarked) [Example 48, 2-(5-(4-biphenyl-4-ylcarboxamidophenyl)thiazole-2-carboxamido)-3-methylbutanoic acid] | – | ++ (>50% Inhibition ≦100) |
| CC(C)C(NC(=O)c1ncc(-c2ccc(NC(=O)C3Cc4ccccc4C3)cc2)s1)C(=O)O (centres unmarked) [Example 52, 2-(5-(4-(2,3-dihydro-1H-indene-2-carboxamido)phenyl)thiazole-2-carboxamido)-3-methylbutanoic acid] | 50 to 100 | – |
| CC(C)[C@H](NC(=O)c1ncc(-c2ccc(NC(=O)Nc3ccc4c(c3)CCC4)cc2)o1)C(=O)O [Example 56, (S)-2-(5-(4-(3-(2,3-dihydro-1H-inden-5-yl)ureido)phenyl)oxazole-2-carboxamido)-3-methylbutanoic acid] | 50 to 100 | – |
| CC(C)[C@H](NC(=O)c1ncc(-c2ccc(NC(=O)Nc3ccc(Cl)cc3)cc2)o1)C(=O)O [Example 58, (S)-2-(5-(4-(3-(4-chlorophenyl)ureido)phenyl)oxazole-2-carboxamido)-3-methylbutanoic acid] | 50 to 100 | – |
| CC(C)[C@H](NC(=O)c1ncc(-c2ccc(NC(=O)Nc3ccc(C(F)(F)F)cc3Cl)cc2)o1)C(=O)O [Example 62, (S)-2-(5-(4-(3-(2-chloro-4-(trifluoromethyl)phenyl)ureido)phenyl)oxazole-2-carboxamido)-3-methylbutanoic acid] | 50 to 100 | – |
| CC(C)[C@H](NC(=O)c1ncc(-c2ccc(NC(=O)Nc3ccc(Cl)cc3F)cc2)o1)C(=O)O [Example 64, (S)-2-(5-(4-(3-(4-chloro-2-fluorophenyl)ureido)phenyl)oxazole-2-carboxamido)-3-methylbutanoic acid] | 50 to 100 | – |
| CC(C)[C@H](NC(=O)c1ncc(-c2ccc(NC(=O)Nc3ccc(Cl)cc3)cc2)s1)C(=O)O [Example 68, (S)-2-(5-(4-(3-(4-chlorophenyl)ureido)phenyl)thiazole-2-carboxamido)-3-methylbutanoic acid] | 50 to 100 | – |
| CC(C)[C@H](NC(=O)c1ncc(-c2ccc(NC(=O)Nc3cccc(Cl)c3)cc2)s1)C(=O)O [Example 70, (S)-2-(5-(4-(3-(3-chlorophenyl)ureido)phenyl)thiazole-2-carboxamido)-3-methylbutanoic acid] | 50 to 100 | – |
| CC(C)[C@H](NC(=O)c1ncc(-c2ccc(NC(=O)Nc3ccc(C(F)(F)F)cc3Cl)cc2)s1)C(=O)O [Example 72, (S)-2-(5-(4-(3-(2-chloro-4-(trifluoromethyl)phenyl)ureido)phenyl)thiazole-2-carboxamido)-3-methylbutanoic acid] | 50 to 100 | – |
| CC(C)[C@H](NC(=O)c1ncc(-c2ccc(NC(=O)Nc3ccc(Cl)cc3F)cc2)s1)C(=O)O [Example 74, (S)-2-(5-(4-(3-(4-chloro-2-fluorophenyl)ureido)phenyl)thiazole-2-carboxamido)-3-methylbutanoic acid] | 50 to 100 | – |
| CC(C)C(NC(=O)c1ncc(-c2ccc(NCc3ccc(F)cc3)cc2)s1)C(=O)O (centres unmarked) [Example 91, 2-(5-(4-((4-Fluorobenzyl)amino)phenyl)thiazole-2-carboxamido)-3-methylbutanoic acid] | 0 to 50 | – |
| CC(C)C(NC(=O)c1ncc(-c2ccc(N(Cc3ccccc3)Cc3ccccc3)cc2)s1)C(=O)O (centres unmarked) [Example 93, 2-(5-(4-(dibenzylamino)phenyl)thiazole-2-carboxamido)-3-methylbutanoic acid] | 0 to 50 | – |
